US7544773B2 (priority 2003, dated 2009)

Target: Dr hemagglutinin (Escherichia coli, UniProt P24093)
Assay type: cell-based, E. coli

Dr hemagglutinin, sequence (P24093 22-160): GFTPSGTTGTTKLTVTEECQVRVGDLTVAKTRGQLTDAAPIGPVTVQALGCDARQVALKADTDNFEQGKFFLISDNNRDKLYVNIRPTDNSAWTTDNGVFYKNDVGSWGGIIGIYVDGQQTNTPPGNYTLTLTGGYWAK

## TTGTTKL
  polymerisation of Dr hemagglutinin judged by hemaglutination assay: completely abolished
